Measured values: US10238658B2, “1-pyrazolyl-3-(4-((2-anilinopyrimidin-4-yl) oxy) napththalen-1-yl) ureas as p38 MAP kinase inhibitors” (Respivert Limited, priority 2011, dated 2019)

What was measured:
[1] = test system: IL-8; assay: TNFα-stimulated IL-8 production in primary bronchial epithelial cells from COPD; type: cell-based; settings: Homo sapiens, Epithelial cell
Procedure: Primary airway epithelial cells obtained from patients with COPD were purchased from Asterand (Royston, UK), and maintained in bronchial epithelial cell growth media that was prepared by mixing together LHC8 (lnvitrogen) (500 mL), with LHC9 (Invitrogen) (500 mL) and 3 μL of retinoic acid solution (5 mg/mL in neat DMSO. The media was removed by aspiration and fresh BEGM (200 μL) was added to each well. Where appropriate, 1 μL of a solution of the test compound at the state concentrations or 1 μL of DMSO as the vehicle control was added and the cells were incubated for 2 hr. The cells were stimulated with TNFα (50 μL; final concentration 50 ng/mL) and then incubated for 4 hr at 37° C. and 5% CO2. The supernatant was then collected and kept at −20° C.
The levels of IL-6 and IL-8 were determined by ELISA using R&D Systems' Human IL-6 and IL-8 Duoset® Elisa Kits. The inhibition of IL-6 and IL-8 production was calculated at each concentration by comparison with vehicle control.

[2] = test system: MIP1α; assay: LPS-stimulated MIP1α production in sputum macrophages from COPD; type: cell-based; settings: Homo sapiens, Macrophage
Procedure: Patients with COPD were inhaled with a nebulised solution of 3% (w/v) hypertonic saline using an ultrasonic nebuliser (Devilbiss, Carthage, Mo.) with tidal breathing for 5 min. This procedure was repeated a maximum of three times until enough sputum was obtained. The sputum samples were homogenized and mixed vigorously using a vortex mixer in 0.02% v/v dithiothreitol (DTT) solution. The samples were re-suspended in PBS (40 mL) followed by centrifugation at 1500 rpm at 4° C. for 10 min to obtain sputum cell pellets. The pellets were washed twice with PBS (40 mL). The sputum cells were then re-suspended in macrophage serum-free medium (macrophage-SFM, Life technologies, Paisley, UK; to achieve 2×10^6/well in a 24 well plate) containing 20 U/mL penicillin, 0.02 mg/mL streptomycin and 5 μg/mL amphotericin B and seeded on high bound 96-well plate, followed by incubation for 2 hr at 37° C. and at 5% CO2 to allow the macrophages to attach to the bottom of the plate. The cells on the plate were washed with fresh macrophage-SFM (200 μL/well) to remove neutrophils and other contaminated cells. The adherent cells (mainly sputum macrophages) on the plate were used for further analysis. Sputum induction and isolation were conducted in Quintiles Drug Research Unit at Guys Hospital and ethics approval and written informed consent was obtained by Quintiles.
Where appropriate, 1 μL of a solution containing either the test compound or reference article at the stated concentrations or alternatively 1 μL of DMSO as the vehicle control was added to each well (200 μL in media) and the cells were incubated for 2 hr. […] After washing with 200 uL wash buffer per well, the beads were resuspended in sheath fluid (150 μL) and analyzed immediately. The level of each analyte in the supernatant was calculated using Xcel Fit software with a 4 or 5-parameter equation using each standard curve. The inhibitions of each cytokine production were calculated at each concentration by comparison with vehicle control. The IC50 values were determined from concentration-inhibition curves using XL-Fit (idbs, Guildford, UK)

[3] = test system: A/J mice; assay: Cigarette smoke model: macrophage and neutrophil accumulation in BALF; type: in vivo, mouse; settings: for % inhibition Macrophage in BALF / % inhibition Neutrophil in BALF: tobacco smoke
Procedure: A/J mice (males, 5 weeks old) were exposed to cigarette smoke (4% cigarette smoke, diluted with air) for 30 min/day for 11 days using a Tobacco Smoke Inhalation Experiment System for small animals (Model SIS-CS; Sibata Scientific Technology, Tokyo, Japan). […] At 12 hr after the last dosing, each of the animals was anesthetized, the trachea cannulated and bronchoalveolar lavage fluid (BALF) was collected. The numbers of alveolar macrophages and neutrophils were determined by FACS analysis (EPICS® ALTRA II, Beckman Coulter, Inc., Fullerton, Calif., USA) using anti-mouse MOMA2 antibody (macrophage) or anti-mouse 7/4 antibody (neutrophil). BALF was centrifuged and the supernatant was collected. The level of keratinocyte chemoattractant (KC; CXCL1) in BALF was quantitated using a Quentikine® mouse KC ELISA kit (R&D systems, Inc., Minneapolis, Minn., USA).

## Cc1ccc(-n2nc(C(C)(C)C)cc2NC(=O)Nc2ccc(Oc3ccnc(Nc4ccccc4)n3)c3ccccc23)cc1 [Example 1, 1-(3-(tert-Butyl)-1-(p-tolyl)-1H-pyrazol-5-yl)-3-(4-(2-(phenylamino)pyrimidin-4-yloxy)naphthalen-1-yl)urea]
[1]; COPD patients, TNFα stimulated
  IC50: 0.85 nM
[1]; read-out: IL-8 E max, bronchial epithelial cell
  Emax at 0.1 µg/mL: 100%
[2]; COPD patients, LPS
  IC50: 7.5 nM
[2]; read-out: MIP1α E max, sputum macrophage
  Emax at 0.1 µg/mL: 89%
[3]; mice
  macrophage accumulation in BALF induced by cigarette smoke, effect in words: dose-dependent inhibition
  neutrophil accumulation in BALF induced by cigarette smoke, effect in words: dose-dependent inhibition
[3]; 0.32 μg/mL intra-nasal
  % inhibition Macrophage in BALF: 11%
  % inhibition Neutrophil in BALF: 12%
[3]; 1.6 μg/mL intra-nasal
  % inhibition Macrophage in BALF: 28%
  % inhibition Neutrophil in BALF: 29%
[3]; 8.0 μg/mL intra-nasal
  % inhibition Macrophage in BALF: 43%
  % inhibition Neutrophil in BALF: 41%
[3]; 40 μg/mL intra-nasal
  % inhibition Macrophage in BALF: 64%
  % inhibition Neutrophil in BALF: 52%
